Consider 28 compounds from patent US11498923B2 (Merck Sharp & Dohme Corp., priority 2017, dated 2022).

pKi: −log10 of the molar value. Where two headings read alike, the source gives them in different places.

This test concerns the target T1, human A2a receptor (Homo sapiens, UniProt P29274).
T1 construct: purchased Perkin-Elmer RBHA2AM400UA; host or cells: HEK293 cells, used as a membrane preparation
Nature of the test: A2a receptor competition binding assay (Scintillation Proximity). A digest of the protocol:
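Ki values were obtained with the Cheng-Prusoff equation from competition curves against 0.5 nM tritiated antagonist, scintillation proximity counting after 1 h room-temperature incubation. Receptor came from HEK293 membranes pretreated with adenosine deaminase; compound final range 3000–0.15 nM, buffer Ca/Mg-free PBS with 10 mM MgCl2.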
In general terms: SPA uses beads or plates that emit light when radiolabelled molecules are held near them.

Where [1] appears, read: membranes from HEK293 cells expressing human A2a receptor, 0.5 nM tritiated ligand, Cheng-Prusoff, read-out: A2a Ki.

T1 sequence (P29274 whole entry): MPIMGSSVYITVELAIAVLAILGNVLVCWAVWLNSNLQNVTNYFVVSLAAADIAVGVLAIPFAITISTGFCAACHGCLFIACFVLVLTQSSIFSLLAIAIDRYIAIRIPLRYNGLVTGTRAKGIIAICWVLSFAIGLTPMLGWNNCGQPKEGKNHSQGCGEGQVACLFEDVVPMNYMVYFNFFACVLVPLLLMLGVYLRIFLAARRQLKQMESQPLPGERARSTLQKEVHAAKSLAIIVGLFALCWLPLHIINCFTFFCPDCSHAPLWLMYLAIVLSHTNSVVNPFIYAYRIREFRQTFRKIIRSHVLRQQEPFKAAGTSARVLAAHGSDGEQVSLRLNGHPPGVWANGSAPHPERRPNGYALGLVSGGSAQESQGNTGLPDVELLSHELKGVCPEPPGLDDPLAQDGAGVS

In the case of `C[C@H](NC(=O)c1cn2c(N)nc3c(F)cccc3c2n1)c1ccccc1` [Ex-296, (S)-5-amino-7-fluoro-N-(1-phenylethyl)imidazo[1,2-c]quinazoline-2-carboxamide], the pKi under setting [1] is 7.55.

Regarding `C[C@@H](NC(=O)c1cn2c(N)nc3c(F)cccc3c2n1)c1ccccc1` [Ex-297, (R)-5-amino-7-fluoro-N-(1-phenylethyl)imidazo[1,2-c]quinazoline-2-carboxamide], the pKi under setting [1] was 8.64. On to `Nc1nc2c(F)cccc2c2nc(C(=O)NCc3ccccn3)cn12` [Ex-298, 5-amino-7-fluoro-N-(pyridin-2-ylmethyl)imidazo[1,2-c]quinazoline-2-carboxamide], for which the pKi under setting [1] was 7.85. Turning to `Nc1nc2c(F)cccc2c2nc(CC3CCN(c4ncc(F)cn4)CC3)cn12` [Ex-300, 7-fluoro-2-((1-(5-fluoropyrimidin-2-yl)piperidin-4-yl)methyl)imidazo[1,2-c]quinazolin-5-amine], under setting [1], the pKi was 7.92.

As to `Nc1nc2c(F)cccc2c2nc(CC3CCNCC3)cn12` [Ex-303, 7-fluoro-2-(piperidin-4-ylmethyl)imidazo-[1,2-c]quinazolin-5-amine], the pKi under setting [1] is 6.77. On to `Nc1nc2c(F)cccc2c2nc(CC3CCN(Cc4ccccc4)CC3)cn12` [Ex-304, 2-((1-benzylpiperidin-4-yl)methyl)-7-fluoro-imidazo[1,2-c]quina-zolin-5-amine], for which, under setting [1], the pKi was 7.35. Consider `Nc1nc2c(F)cccc2c2nc(CC3CCN(CC4CC4)CC3)cn12` [Ex-305, 2-((1-(cyclopropyl-methyl)piperidin-4-yl)methyl)-7-fluoro-imidazo[1,2-c]quina-zolin-5-amine], for which the pKi under setting [1] is 6.66. On to `Nc1nc2c(F)cccc2c2nc(CC3CCN(Cc4cccs4)CC3)cn12` [Ex-306, 7-fluoro-2-((1-(thio-phen-2-ylmethyl)-piperidin-4-yl)methyl)-imidazo[1,2-c]quina-zolin-5-amine], for which the pKi under setting [1] was 7.35. As to `CCN1CCC(Cc2cn3c(N)nc4c(F)cccc4c3n2)CC1` [Ex-307, 2-((1-ethyl-piperidin-4-yl)methyl)-7-fluoro-imidazo[1,2-c]quina-zolin-5-amine], under setting [1], the pKi is 6.92. Same read-out and setting: the figure for `Nc1nc2c(F)cccc2c2nc(CC3CCN(CCc4ccccc4)CC3)cn12` [Ex-308, 7-fluoro-2-((1-phen-ethylpiperidin-4-yl)-methyl)imidazo[1,2-c]quinazolin-5-amine] is 6.52; for `COc1ccc(CN2CCC(Cc3cn4c(N)nc5c(F)cccc5c4n3)CC2)cc1` [Ex-309, 7-fluoro-2-((1-(4-methoxybenzyl)-piperidin-4-yl)-methyl)imidazo-[1,2-c]quinazolin-5-amine] it is 6.82; for `COc1cccc(CN2CCC(Cc3cn4c(N)nc5c(F)cccc5c4n3)CC2)c1` [Ex-310, 7-fluoro-2-((1-(3-methoxybenzyl)-piperidin-4-yl)-methyl)imidazo-[1,2-c]quinazolin-5-amine] it is 7.25. Consider `COc1ccccc1CN1CCC(Cc2cn3c(N)nc4c(F)cccc4c3n2)CC1` [Ex-311, 7-fluoro-2-((1-(2-methoxybenzyl)-piperidin-4-yl)-methyl)imidazo-[1,2-c]quinazolin-5-amine], for which the pKi under setting [1] was 7.03. Take `Cc1ccc(CN2CCC(Cc3cn4c(N)nc5c(F)cccc5c4n3)CC2)cc1` [Ex-312, 7-fluoro-2-((1-(4-methylbenzyl)piperi-din-4-yl)methyl)-imidazo-[1,2-c]-quinazolin-5-amine]: under setting [1], the pKi is 7.32. Still for that read-out and setting: the figure for `Nc1nc2c(F)cccc2c2nc(CC3CCN(Cc4cccnc4)CC3)cn12` [Ex-313, 7-fluoro-2-((1-(pyridin-3-yl-methyl)piperidin-4-yl)methyl)imidazo-[1,2-c]quinazolin-5-amine] is 6.51. Take `Nc1nc2c(F)cccc2c2nc(CC3CCN(C(=O)c4ccccc4)CC3)cn12` [Ex-315, (4-((5-amino-7-fluoro-imidazo[1,2-c]quina-zolin-2-yl)methyl)-piperidin-1-yl)-(phenyl)methanone]: the pKi under setting [1] is 7.09. Turning to `Nc1nc2c(F)cccc2c2nc(CC3CCN(C(=O)OCc4ccccc4)CC3)cn12` [Ex-316, benzyl 4-((5-amino-7-fluoroimidazo[1,2-c]quinazolin-2-yl)-methyl)piperidine-1-carboxylate], under setting [1], the pKi was 7.52. With `Nc1nc2c(F)cccc2c2nc(CC3CCN(C(=O)c4cccnc4)CC3)cn12` [Ex-317, (4-((5-amino-7-fluoroimidazo-[1,2-c]quinazolin-2-yl)methyl)piperidin-1-yl)(pyridin-3-yl)-methanone], under setting [1], the pKi was 7.00. Regarding `Nc1nc2c(F)cccc2c2nc(CC3CCN(c4ccc(F)cn4)CC3)cn12` [Ex-319, 5-amino-7-fluoro-2-((1-(5-fluoropyridin-2-yl)piperidin-4-yl)-methyl)imidazo[1,2-c]quinazolin-6-ium 2,2,2-trifluoroacetate], under setting [1], the pKi was 7.51. With `COc1ccnc(C(=O)N2CCC(Cc3cn4c(N)nc5c(F)cccc5c4n3)CC2)c1` [Ex-320, (4-((5-amino-7-fluoroimidazo[1,2-c]quinazolin-2-yl)-methyl)piperidin-1-yl)(4-methoxypyridin-2-yl)methanone], the pKi under setting [1] is 7.52. Still for that read-out and setting: the figure for `Nc1nc2c(F)cccc2c2nc(CC3CCN(C(=O)c4cnccn4)CC3)cn12` [Ex-321, (4-((5-amino-7-fluoroimidazo[1,2-c]quinazolin-2-yl)-methyl)piperidin-1-yl)(pyrazin-2-yl)-methanone] is 7.47.

Turning to `Nc1nc2c(F)cccc2c2nc(CC3CCN(C(=O)c4cccc(Br)n4)CC3)cn12` [Ex-322, (4-((5-amino-7-fluoroimidazo[1,2-c]quinazolin-2-yl)-methyl)piperidin-1-yl)(6-bromopyridin-2-yl)methanone], the pKi under setting [1] was 7.59. Take `Nc1nc2c(F)cccc2c2nc(CC3CCN(C(=O)c4ccc(F)cn4)CC3)cn12` [Ex-323, (4-((5-amino-7-fluoroimidazo[1,2-c]quinazolin-2-yl)-methyl)piperidin-1-yl)(5-fluoropyridin-2-yl)methanone]: the pKi under setting [1] was 7.77. Same read-out and setting: the figure for `Cc1cccc(C(=O)N2CCC(Cc3cn4c(N)nc5c(F)cccc5c4n3)CC2)n1` [Ex-324, (4-((5-amino-7-fluoroimidazo[1,2-c]quinazolin-2-yl)-methyl)piperidin-1-yl)(6-methylpyridin-2-yl)methanone] is 7.36. For the compound `COc1cccc(C(=O)N2CCC(Cc3cn4c(N)nc5c(F)cccc5c4n3)CC2)n1` [Ex-325, (4-((5-amino-7-fluoroimidazo[1,2-c]-quinazolin-2-yl)-methyl)piperidin-1-yl)(6-methoxypyridin-2-yl)methanone], the pKi under setting [1] was 7.27.

In the case of `Nc1nc2c(F)cccc2c2nc(CC3CCN(C(=O)c4ncccn4)CC3)cn12` [Ex-326, (4-((5-amino-7-fluoroimidazo[1,2-c]quinazolin-2-yl)-methyl)piperidin-1-yl)(pyrimidin-2-yl)-methanone], the pKi under setting [1] was 7.33. For `COc1ccc(C(=O)N2CCC(Cc3cn4c(N)nc5c(F)cccc5c4n3)CC2)nc1` [Ex-327, (4-((5-amino-7-fluoroimidazo[1,2-c]quinazolin-2-yl)-methyl)piperidin-1-yl)(5-methoxypyridin-2-yl)methanone], the pKi under setting [1] was 7.68. `Nc1nc2c(F)cccc2c2nc(Cc3ccc4c(c3)CN(C(=O)c3ccccc3)C4)cn12` [L-005052550, (5-((5-amino-7-fluoroimidazo[1,2-c]quinazolin-2-yl)methyl)isoindolin-2-yl)(phenyl)methanone]: the pKi (value printed in the synthesis text as 'A2a=' without quantity name, read-out: A2a) was 8.08.
